# In patent publication US8491938B2, “Potent inhibitory effect of zinc in combination with sulforaphane on cancer cell growth” (University of Maryland, Baltimore, priority 2009, dated 2013):
# Read-outs that look alike come from different tables or passages of the source.
# Key:
# Format in all cases: cell-based, human
# MT1/2 [1] = assay: Western blot of MT1/2 expression in HPR-1 cells; details: zinc at 24 h, SFN at 6 h and 24 h
# Procedure: (§1) Total cellular proteins from the experimental samples were extracted by radioimmuno-precipitation assay (RIPA) lysis buffer (Upstate, Lake Placid, N.Y.) containing protease inhibitor (Roche Diagnostics Gmbh, Mannheim, Germany). The protein extracts (30 μg/lane) were applied to electrophoresis on an SDS-polyacrylamide gel, and then, a transferred poly(vinylidene fluoride) (PVDF) membrane (Millipore, Billerica, Mass.) was blocked in 5% nonfat dry milk in phosphate buffered saline (PBS) containing 0.05% Tween-20 (Sigma, St. Louis, Mo.) (PBST) for 1 hr at room temperature followed by the hybridization to the primary antibodies against PARP (BD pharmingen, San Jose, Calif.), caspase 3 (BD pharmingen, San Jose, Calif.), p-JNK and JNK1 (Santa Cruz, Calif.), pP38 and P38 (Cell Signaling Technology, Danvers, Mass.), ppERK1/2 (Sigma, St. Louis, Mo.), ERK1/2 (Cell Signaling Technology, Danvers, Mass.) at 4° C. overnight. After washing, the membranes were incubated with corresponding second antibodies. Beta-actin (Sigma, St. Louis, Mo.) and GAPDH (Cell Signaling Technology, Danvers, Mass.) were used as internal controls to monitor the sample loadings. […] The signals of targeted bands were scanned and quantified with an LKB Ultra Scan XL laser densitometer (Image Quant, Molecular Dynamics, Sunnyvale, Calif.).
# PC-3 cells [2] = assay: Mitochondrial membrane potential (MMP) detection, DiOC6(3)/PI flow cytometry, PC-3 cells; details: for effect on MMP versus control, single agent: PC-3, zinc alone or SFN 12 μM alone; for effect on MMP alteration induced by zinc/SFN: PC-3, pretreatment 30 min, treatment 24 h
# Text: Cell flow cytometric analysis with 3,3′-dihexyloxacarbocyanine iodide (DiOC6(3); Invitrogen, Carlsbad, Calif.) and propidium iodide (PI;BD Pharmingen, San Jose, Calif.) was used to evaluate MMP and apoptosis of the cells. The fluorescence dye DiOC6(3) is featured by its accumulation in the mitochondrial matrix, which is resulted from negative mitochondrial membrane potential within viable cells. Thus, the changes of fluorescence of DiOC6(3) reflect the MMP alteration of the cells. Another fluorescence dye PI is cell membrane impermeable and able to stain DNA once cell membrane integrity is damaged during apoptosis. In the experiments, after treatments, cells (2.5×10^5/ml) were incubated with 100 nM DiOC6(3) in PBS for 15 min at 37° C. Then the cells were washed in PBS once, followed by incubation with 2.5 μg/ml PI for additional 10 min at room temperature. The samples were subjected to cell flow cytometric analysis, and FACScan (Becton Dickinson) was used to analyze the fluorescence of DIOC6(3) and PI [2].
# [3] = tested on: cytochrome c, pro-caspase 3 and PARP; assay: Western blot of apoptosis proteins in PC-3 cells; details: PC-3, zinc 12.5 μM or SFN 12 μM alone, 24 h
# Procedure: as §1, with “Calif.). […]” for “Calif.).”
# p38 = assay: Western blot of p38 activation in PC-3 cells; details: PC-3, 6 h treatment, versus control
# Procedure: as §1
# MT1/2 [4] = assay: Western blot of MT1/2 expression in PC-3 cells; details: zinc at 24 h, SFN and combination at 6 and 24 h
# Procedure: as §1
# HPR-1 cells = assay: MTT cell viability assay, HPR-1 cells
# Procedure: Two human prostatic cell lines were used: a) HPR-1, a cell line derived from normal human prostate epithelial cells (kindly provided by Dr. C. K. Choo, University of Hong Kong, Hong Kong, China); and b) PC-3, a human malignant prostate cell line (ATCC, Rockville, Md.). HPR-1 cells were cultured in keratinocyte medium supplemented with epidermal growth factor (EGF) ([…]) and bovine pituitary extracts (25 mg/500 ml) (Gibco BRL, Life Technologies, Bethesda, Md.). […] The passages of the cell lines were within the range of 5-40. […] Cell viability and proliferation were evaluated with the MTT assay. The cells were seeded at a density of 9×10^3 cells/well in a 96 well plate containing 100 μl culture medium/well. After attachment, cells were treated with or without zinc and/or SFN at various concentrations in serum/supplement free medium. After 24 h treatment, 10 μl MTT (5 mg/ml, sigma) was added into each well and incubated at 37° C. for 1 h. Then the medium was removed and 100 μl dimethyl sulfoxide (DMSO) was added to dissolve water-insoluble formazan crystals converted from water-soluble MTT by living cells. The color absorbency of formazan was detected at a wavelength of 540 nm using a microplate reader (Molecular Devices).
# PC-3 cells [5] = assay: ROS detection (carboxy-H2DCFDA, flow cytometry) in PC-3 cells; details: for effect on ROS production induced by zinc, SFN or zinc/SFN combination / effect on surge of ROS induced by zinc/SFN combination: PC-3, inhibitor 6 mM; for effect on ROS production induced by zinc, SFN or zinc/SFN combination: 30 min pretreatment, 6 h and 24 h; for effect on surge of ROS induced by zinc/SFN combination: 24 h of treatment; for increase of ROS levels: PC-3, SFN alone
# Procedure: 5-(and-6)-carboxy-2 ′,7 ′-dichlorodihydrofluorescein diacetate (carboxy-H2DCFDA,) was used to determine the intracellular ROS levels of individual cells. In living cells, this compound is oxidized and converted to the 2′,7′-dichlorofluoroscein (DCF) that is highly fluorescent. In the experiments, PC-3 cells cultured on 12-well plates were incubated in serum-free medium containing zinc sulfate ([…])/SFN (12 μM). Thirty min prior to the completion of the time course, carboxy-H2DCFDA was added at a final concentration of 5 μM. Cells were then collected and washed once with PBS. The fluorescent intensity of DCF was assayed by FACScan (Becton Dickinson)[3].
# PC-3 cells [6] = assay: MTT cell viability assay, PC-3 cells; details: for IC50: PC-3 cells, single agent, read-out: 50% inhibitory concentration (IC50); for IC50 / effect on growth inhibitory effect of zinc, SFN and their combination: MTT; for effect on growth inhibitory effect of zinc, SFN and their combination: PC-3, inhibitor 6 mM pretreatment
# Procedure: Two human prostatic cell lines were used: a) HPR-1, a cell line derived from normal human prostate epithelial cells (kindly provided by Dr. C. K. Choo, University of Hong Kong, Hong Kong, China); and b) PC-3, a human malignant prostate cell line (ATCC, Rockville, Md.). HPR-1 cells were cultured in keratinocyte medium supplemented with epidermal growth factor (EGF) ([…]) and bovine pituitary extracts (25 mg/500 ml) (Gibco BRL, Life Technologies, Bethesda, Md.). PC-3 cells were cultured in RPMI-1640 medium with 5% or 10% of fetal bovine serum (FBS), respectively. All media were supplemented with penicillin/streptomycin (1 U/ml, Invitrogen), and the cells were maintained at 37° C. in a humidified incubator with 5% CO2. The passages of the cell lines were within the range of 5-40. Once the cell density reached 50-60% confluence, the growth media were replaced by fresh serum/supplement-free medium for 24 h to synchronize cell growth. The cells were then treated with or without zinc sulfate (concentrations as indicated in the legends) in fresh serum/supplement-free medium for 0, 1, 3, 6, 12, and 24 h, respectively.
# Cell viability and proliferation were evaluated with the MTT assay. The cells were seeded at a density of 9×10^3 cells/well in a 96 well plate containing 100 μl culture medium/well. After attachment, cells were treated with or without zinc and/or SFN at various concentrations in serum/supplement free medium. After 24 h treatment, 10 μl MTT (5 mg/ml, sigma) was added into each well and incubated at 37° C. for 1 h. Then the medium was removed and 100 μl dimethyl sulfoxide (DMSO) was added to dissolve water-insoluble formazan crystals converted from water-soluble MTT by living cells. The color absorbency of formazan was detected at a wavelength of 540 nm using a microplate reader (Molecular Devices).
# [formula] experiments were designed by a statistics-based method utilizing the maximal power design developed by Fang and Tan(2003, 2008) and the corresponding SynStat version 1.beta software (http://www.umgcc.org/research/biostat_software.htm), This method uses uniform measures maximizes the minimum power of the F-test to detect departures from the additive action of drugs. […] With the information from experiments of single agents, SynStat derived 21 mixtures of the two agents and 6 replicates at each mixture based on the pooled variations in single agent experiments, which have 80% statistical power to detect at least a 15% difference in viability between the predicted additive values and the observed values at a significance level of 5%. Then, cells are exposed to these 21 mixtures and the cytotoxicity of this combination is determined. Upon completion of the experiments, we use the F-statistic given by Tan et al. (2003) to test the hypothesis of the additive action of two agents and calculate the p-value of the F-test. If the p-value is greater than 0.05, we can accept the hypothesis of the additive action of two agents. Otherwise, we calculate the interaction index (τ), which is proposed by Berenbaum who adopted the Lowe additivity model (Berenbaum, 1977) where, for a given cytotoxic effect, xA and xB are the concentrations of zinc and SFN in the combination, and XA and XB are the concentrations of zinc and SFN respectively that achieve the same cytotoxic effect when given alone. A τ value of 1 indicates additivity; τ<1 indicates synergy, and τ>1 indicates antagonism.
"IC50 (PC-3 cells [6]; Homo sapiens, 24 h)",Structure (SMILES),MT1/2 protein levels (MT1/2 [1]),"effect on MMP versus control, single agent (PC-3 cells [2])","apoptotic effect (cytochrome c, pro-caspase 3, PARP), single agent [3]",phosphorylation of p38 (p38),MT1/2 protein levels (MT1/2 [4]),"HPR-1 cells still alive (HPR-1 cells; zinc 30 μM, 24 h)","response of HPR-1 cells to zinc (HPR-1 cells; zinc alone at doses of the six selected combinations, 24 h)","increase of ROS level (PC-3 cells [5]; PC-3, zinc alone, late time points (12 to 24 h))",IC50 (PC-3 cells [6]; 24 h),"PC-3 cells that could survive (PC-3 cells [6]; zinc 30 μM, 24 h)",effect on MMP alteration induced by zinc/SFN (PC-3 cells [2]),"effect on ROS production induced by zinc, SFN or zinc/SFN combination (PC-3 cells [5])",effect on surge of ROS induced by zinc/SFN combination (PC-3 cells [5]),"effect on growth inhibitory effect of zinc, SFN and their combination (PC-3 cells [6])","HPR-1 cells still alive (plateau) (HPR-1 cells; SFN 25 μM and even higher, 24 h)","response of HPR-1 cells to lower concentration of SFN (HPR-1 cells; SFN <10 μM, 24 h)","proliferation of HPR-1 cells (HPR-1 cells; SFN at the range of 10 to 25, 24 h, less effective than in PC-3 cells)","increase of ROS levels (PC-3 cells [5]; late time points (12 to 24 h), first value)","increase of ROS levels (PC-3 cells [5]; late time points (12 to 24 h), second value)"
,"O=S(=O)([O-])[O-].[Zn+2] [zinc, zinc sulfate]",induce expression of MT1/2 significantly,increase one fold,lack of cell responses,increased phosphorylation of p38,significant induction,around 90%,no response,40-50%,16.2 ± 0.9 µM,less than 20%,,,,,,,,,
,"N[C@@H](CCC(=O)N[C@@H](CS)C(=O)NCC(=O)O)C(=O)O [GSH, reduced glutathionein]",,,,,,,,,,,completely prevented,significantly inhibited ROS production,completely abolished,concordantly abolished,,,,,
,"CC(=O)N[C@@H](CS)C(=O)O [NAC, N-Acetyl Cysteine]",,,,,,,,,,,completely prevented,significantly inhibited ROS production,completely abolished,concordantly abolished,,,,,
20.3 ± 0.8 µM,"C[S+]([O-])CCCCN=C=S (centres unmarked) [SFN, 1-Isothiocyanato-4-methylsulfinylbutane]",decreased expression of MT1/2,did not affect MMP at all,lack of cell responses,increased phosphorylation of p38,no effect or a slight inhibition,,,,,,,,,,60%,no response,inhibited in a dose-dependent pattern,about 35%,~55%
